Columns and labels:
[1] = biological target: aphid peptidyl-dipeptidase A (Aphis gossypii, UniProt A0A2K9Y4D7); assay: Inhibition of aphid peptidyl-dipeptidase A activity, in vitro, substrate Abz-Gly-p-nitro-Phe-Pro-OH; format: biochemical, cotton aphid (Aphis gossypii); conditions: for inhibition at 10 µM / Activity of inhibiting peptidyl-dipeptidase A activity (inhibition degree (%) at 10 μM addition): test compound in DMSO, final concentration 10 μM, relative to DMSO control; for inhibition at 10 µM: read-out: Activity of inhibiting peptidyl-dipeptidase A activity (inhibition degree (%) at 10 μM addition); for IC50: concentrations 100 to 0.03 μM, calculated with XL fit, read-out: Activity of inhibiting peptidyl-dipeptidase A activity IC50, (μM))
aphid peptidyl-dipeptidase A, sequence (A0A2K9Y4D7 entry or part of it): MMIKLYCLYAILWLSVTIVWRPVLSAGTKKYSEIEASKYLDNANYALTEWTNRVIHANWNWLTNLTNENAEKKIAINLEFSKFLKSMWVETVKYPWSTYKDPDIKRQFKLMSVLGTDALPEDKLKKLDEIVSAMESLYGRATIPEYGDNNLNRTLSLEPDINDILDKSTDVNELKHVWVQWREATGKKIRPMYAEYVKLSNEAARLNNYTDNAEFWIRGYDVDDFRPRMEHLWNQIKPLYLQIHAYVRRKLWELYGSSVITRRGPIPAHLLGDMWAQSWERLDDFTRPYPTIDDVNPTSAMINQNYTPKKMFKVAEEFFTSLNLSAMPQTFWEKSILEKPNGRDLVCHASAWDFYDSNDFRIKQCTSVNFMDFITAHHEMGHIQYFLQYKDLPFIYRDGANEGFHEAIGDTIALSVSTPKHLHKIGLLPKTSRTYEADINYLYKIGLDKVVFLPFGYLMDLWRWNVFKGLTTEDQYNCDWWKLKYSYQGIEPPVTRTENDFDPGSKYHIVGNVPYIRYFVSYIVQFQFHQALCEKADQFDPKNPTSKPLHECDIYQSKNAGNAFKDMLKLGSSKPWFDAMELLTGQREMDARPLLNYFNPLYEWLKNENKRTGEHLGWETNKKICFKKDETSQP
Description: Selection of a compound which modulates the activity of a peptidyl-dipeptidase A was performed in a system where the activity of a peptidyl-dipeptidase A which is modulated by adding a test compound to an in vitro reaction system using the aphid peptidyl-dipeptidase A prepared in Example 7 is measured and evaluated.
Measurement of the activity of the aphid peptidyl-dipeptidase A was performed according to a method using Abz-Gly-p-nitro-Phe-Pro-OH (manufactured by Bachem, M-1100) as a substrate, as described in the previously reported article (Carmel et al. (1979) Clinica Chimica Acta, 93, 215-220).
For measuring the activity, the activity of the aphid peptidyl-dipeptidase A was measured when a test compound dissolved in DMSO was contained to a final concentration of 10 μM. In addition, the activity of the aphid peptidyl-dipeptidase A was measured when DMSO was contained in place of a test compound. Then, a ratio (%) of a measured value of the activity of the aphid peptidyl-dipeptidase A when a test compound dissolved in DMSO was contained, relative to a measured value of the activity of aphid peptidyl-dipeptidase A when DMSO was contained in place of the test compound was calculated, and a value obtained by subtracting the calculated value from 100% was adopted as an inhibition degree (%).
The activity of aphid peptidyl-dipeptidase A was measured when a test compound dissolved in DMSO was contained to a final concentration of each concentration of 100 μM, 30 μM, 10 μM, 3 μM, 1 μM, 0.3 μM, 0.1 μM or 0.03 μM.

[2] = tested on: Aphis gossypil; assay: Pesticidal activity test, artificial feed rearing, surviving aphids after six days; format: in vivo
Description: A sterilized artificial feed having the following composition (Table 3) was prepared. […] Controlling value (%)={1−(Cb×Tai)/(Cai×Tb)}×100 Letters in the equation represent the following meanings.

[3] = test compound dissolved in DMSO to a final concentration of 640 μM, added at 0.5% volume of artificial feed, significant controlling value (e.g. 30% or more) = pesticidal activity
[4] = test compound dissolved in DMSO to a final concentration of 50 ppm, otherwise as Example 9

Compound	inhibition at 10 µM [1] [%]	Determination result of pesticidal activity [2, 3]	Activity of inhibiting peptidyl-dipeptidase A activity (inhibition degree (%) at 10 μM addition) [1] [%]	Determination result of pesticidal activity ([2]; […], significant controlling value (e.g. 30% or more) = pesticidal activity)	Determination result of pesticidal activity [2, 4]	IC50 [1] [µM]
C[C@H](CS)C(=O)N1CCC[C@H]1C(=O)O [captopril]	99	–	–	–	–	–
CCN(CC)CCO[C@H]1CC[C@@]2(C)C(=CC[C@@H]3[C@@H]2CC[C@]2(C)C(=O)CC[C@@H]32)C1 [3-beta-[2-(diethylamino)ethoxy]androst-5-en-17-one]	–	Presence of pesticidal activity	17	–	–	–
quinapril	–	–	15	Presence of pesticidal activity	Presence of pesticidal activity	35.8
CCOC(=O)[C@H](CCc1ccccc1)N[C@@H](C)C(=O)N1[C@H](C(=O)O)C[C@@H]2CCC[C@@H]21 [ramipril]	16	Presence of pesticidal activity	–	–	–	–
CCOC(=O)[C@H](CCc1ccccc1)N[C@@H](C)C(=O)N1CCC[C@H]1C(=O)O [enalapril]	98	Presence of pesticidal activity	–	–	–	–
CC12CCC3c4ccc(O)cc4CCC3C1C/C(=C\c1ccc(OC(F)(F)F)cc1)C2=O (stereo not drawn) [DF15164]	–	–	–	–	Absence of pesticidal activity	–
COC(=O)C(Cc1ccccc1)NC(=O)Nc1n[nH]c(=S)s1 (stereo not drawn) [MMP-2/MMP-3 inhibitor I]	79	Presence of pesticidal activity	–	–	–	–
CCOC(=O)[C@H](CCc1ccccc1)N[C@H]1CCc2ccccc2N(CC(=O)O)C1=O [benazepril]	41	Presence of pesticidal activity	–	–	Presence of pesticidal activity	15.9
